Experimental data reported in ChEMBL document CHEMBL1142268, “Histone deacetylase inhibitors: from bench to clinic” (J Med Chem, 2008).

Assays:
[1] = biological target: Histone deacetylase (Homo sapiens) (UniProt Q13547+O15379+Q9UBN7+Q92769+Q9UQL6+Q8WUI4+Q9BY41+Q96DB2+P56524+Q9UKV0+Q969S8); assay: Inhibition of HDAC from human HeLa cells at 1000 nM; assay type: cell-based
[2] = tested on: HCT-116; assay: Inhibition of human HCT116 cells; assay type: functional, cell-based
[3] = biological target: T1, Histone deacetylase 1 (Homo sapiens, UniProt Q13547)
T1 sequence (Q13547 whole entry): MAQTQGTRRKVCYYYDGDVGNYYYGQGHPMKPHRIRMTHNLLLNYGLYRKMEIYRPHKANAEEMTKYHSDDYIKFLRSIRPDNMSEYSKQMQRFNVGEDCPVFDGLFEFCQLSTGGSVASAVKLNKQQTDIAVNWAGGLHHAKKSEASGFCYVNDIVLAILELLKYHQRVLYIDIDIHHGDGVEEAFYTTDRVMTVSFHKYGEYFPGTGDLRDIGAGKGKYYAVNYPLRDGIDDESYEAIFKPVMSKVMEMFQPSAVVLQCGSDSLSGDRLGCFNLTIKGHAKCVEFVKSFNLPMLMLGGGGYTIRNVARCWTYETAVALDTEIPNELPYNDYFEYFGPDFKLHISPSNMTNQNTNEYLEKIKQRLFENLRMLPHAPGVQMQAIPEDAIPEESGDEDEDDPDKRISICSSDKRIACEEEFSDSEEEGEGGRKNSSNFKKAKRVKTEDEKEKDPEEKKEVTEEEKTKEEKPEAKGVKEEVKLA
Description: Inhibition of human HDAC1

[4] = biological target: T1, Histone deacetylase 1; remark: listed apart in the source
Description: Inhibition of human HDAC1 assessed as histone H4 acetylation in cell based assay

[5] = tested on: NCI-H460; assay: Inhibition of human NCI-H460 cells; assay type: functional, cell-based
[6] = biological target: Histone deacetylase 3 (Homo sapiens, UniProt O15379)
Histone deacetylase 3, sequence (O15379 whole entry): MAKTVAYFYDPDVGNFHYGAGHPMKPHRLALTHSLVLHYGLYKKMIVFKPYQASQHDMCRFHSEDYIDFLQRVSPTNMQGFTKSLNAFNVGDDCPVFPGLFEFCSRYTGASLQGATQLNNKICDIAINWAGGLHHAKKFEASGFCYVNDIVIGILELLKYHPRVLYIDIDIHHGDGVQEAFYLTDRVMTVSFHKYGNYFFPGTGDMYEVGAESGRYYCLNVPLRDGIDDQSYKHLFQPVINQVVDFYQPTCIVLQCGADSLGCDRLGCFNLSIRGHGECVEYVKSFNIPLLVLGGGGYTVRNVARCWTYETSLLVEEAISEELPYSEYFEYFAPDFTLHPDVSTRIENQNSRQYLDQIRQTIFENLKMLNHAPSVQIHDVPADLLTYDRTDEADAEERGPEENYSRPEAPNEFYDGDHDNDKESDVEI

[7] = biological target: T1, Histone deacetylase 1; remark: listed apart in the source
[8] = biological target: T2, Histone deacetylase 8 (Homo sapiens, UniProt Q9BY41)
T2 sequence (Q9BY41 whole entry): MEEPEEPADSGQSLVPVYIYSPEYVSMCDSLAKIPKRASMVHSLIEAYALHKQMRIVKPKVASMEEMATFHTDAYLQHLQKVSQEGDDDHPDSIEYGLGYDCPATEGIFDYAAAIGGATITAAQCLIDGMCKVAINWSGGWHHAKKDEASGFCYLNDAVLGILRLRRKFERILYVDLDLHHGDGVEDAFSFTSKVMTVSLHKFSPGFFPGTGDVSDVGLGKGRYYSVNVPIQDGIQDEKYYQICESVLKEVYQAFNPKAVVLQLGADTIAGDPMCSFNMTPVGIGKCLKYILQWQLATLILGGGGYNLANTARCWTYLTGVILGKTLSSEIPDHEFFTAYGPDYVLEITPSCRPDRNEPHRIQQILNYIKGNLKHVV

[9] = biological target: T3, Protein deacetylase HDAC6 (Homo sapiens, UniProt Q9UBN7)
T3 sequence (Q9UBN7 whole entry): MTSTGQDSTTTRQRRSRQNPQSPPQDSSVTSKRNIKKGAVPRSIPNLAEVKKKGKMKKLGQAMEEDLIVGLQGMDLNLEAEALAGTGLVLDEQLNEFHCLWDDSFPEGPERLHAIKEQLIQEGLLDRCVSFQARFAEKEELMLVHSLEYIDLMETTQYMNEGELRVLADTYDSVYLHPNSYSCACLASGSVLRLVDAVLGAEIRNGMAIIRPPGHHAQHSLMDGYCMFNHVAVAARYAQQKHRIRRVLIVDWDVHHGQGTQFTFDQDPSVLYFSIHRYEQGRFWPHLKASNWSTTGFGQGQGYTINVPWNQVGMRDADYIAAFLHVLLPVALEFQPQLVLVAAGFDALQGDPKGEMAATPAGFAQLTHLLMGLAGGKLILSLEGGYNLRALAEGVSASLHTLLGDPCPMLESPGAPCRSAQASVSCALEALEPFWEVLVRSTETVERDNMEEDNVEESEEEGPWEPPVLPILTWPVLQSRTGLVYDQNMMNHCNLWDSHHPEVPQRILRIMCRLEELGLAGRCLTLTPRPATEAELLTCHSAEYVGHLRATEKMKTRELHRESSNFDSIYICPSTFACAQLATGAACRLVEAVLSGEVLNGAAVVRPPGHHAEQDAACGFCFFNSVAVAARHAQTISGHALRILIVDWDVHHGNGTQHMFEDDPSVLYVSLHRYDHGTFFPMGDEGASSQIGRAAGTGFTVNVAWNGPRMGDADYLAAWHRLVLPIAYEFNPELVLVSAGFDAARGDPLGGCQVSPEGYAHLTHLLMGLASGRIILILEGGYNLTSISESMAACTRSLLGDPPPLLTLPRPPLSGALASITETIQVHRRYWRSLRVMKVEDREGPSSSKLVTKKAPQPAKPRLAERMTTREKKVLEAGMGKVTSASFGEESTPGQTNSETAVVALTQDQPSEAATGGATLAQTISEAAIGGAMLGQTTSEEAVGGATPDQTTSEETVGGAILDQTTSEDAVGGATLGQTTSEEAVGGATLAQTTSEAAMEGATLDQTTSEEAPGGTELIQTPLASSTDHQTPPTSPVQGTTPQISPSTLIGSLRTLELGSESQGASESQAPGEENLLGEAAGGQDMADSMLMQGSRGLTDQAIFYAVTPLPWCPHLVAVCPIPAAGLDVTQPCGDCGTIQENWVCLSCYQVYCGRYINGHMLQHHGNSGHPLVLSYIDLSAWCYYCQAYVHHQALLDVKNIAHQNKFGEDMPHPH

[10] = biological target: T4, Histone deacetylase 4 (Homo sapiens, UniProt P56524); assay: Inhibition of HDAC4 at 50 uM
T4 sequence (P56524 whole entry): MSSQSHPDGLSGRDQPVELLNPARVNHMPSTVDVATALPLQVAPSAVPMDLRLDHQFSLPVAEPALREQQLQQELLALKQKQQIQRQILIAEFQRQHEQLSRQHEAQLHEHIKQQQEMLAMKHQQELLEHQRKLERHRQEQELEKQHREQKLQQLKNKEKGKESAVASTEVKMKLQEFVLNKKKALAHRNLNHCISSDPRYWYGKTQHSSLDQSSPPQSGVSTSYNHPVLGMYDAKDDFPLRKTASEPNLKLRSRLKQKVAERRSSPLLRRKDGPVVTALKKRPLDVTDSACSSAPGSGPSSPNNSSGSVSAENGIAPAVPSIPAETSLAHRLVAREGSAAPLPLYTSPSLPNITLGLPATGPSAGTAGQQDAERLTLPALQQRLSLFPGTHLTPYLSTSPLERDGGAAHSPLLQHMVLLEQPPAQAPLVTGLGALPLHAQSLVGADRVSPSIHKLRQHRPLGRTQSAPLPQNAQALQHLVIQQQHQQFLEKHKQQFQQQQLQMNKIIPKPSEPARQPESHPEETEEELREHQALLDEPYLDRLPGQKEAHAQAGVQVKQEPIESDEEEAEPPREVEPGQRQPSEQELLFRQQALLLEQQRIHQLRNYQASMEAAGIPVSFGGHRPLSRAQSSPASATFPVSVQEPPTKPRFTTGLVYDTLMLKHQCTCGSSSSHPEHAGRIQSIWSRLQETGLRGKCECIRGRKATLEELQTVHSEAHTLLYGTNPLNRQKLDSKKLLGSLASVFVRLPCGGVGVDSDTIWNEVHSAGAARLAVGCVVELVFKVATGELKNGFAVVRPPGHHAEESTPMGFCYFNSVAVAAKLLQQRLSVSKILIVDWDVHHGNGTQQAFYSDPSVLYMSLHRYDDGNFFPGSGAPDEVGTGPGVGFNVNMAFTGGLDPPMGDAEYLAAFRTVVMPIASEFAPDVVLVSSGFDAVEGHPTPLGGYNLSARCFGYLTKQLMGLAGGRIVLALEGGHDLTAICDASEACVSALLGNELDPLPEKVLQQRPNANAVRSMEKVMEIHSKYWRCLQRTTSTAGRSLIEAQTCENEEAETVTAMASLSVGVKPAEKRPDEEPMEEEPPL

[11] = biological target: Histone deacetylase 9 (Homo sapiens, UniProt Q9UKV0)
Histone deacetylase 9, sequence (Q9UKV0 whole entry): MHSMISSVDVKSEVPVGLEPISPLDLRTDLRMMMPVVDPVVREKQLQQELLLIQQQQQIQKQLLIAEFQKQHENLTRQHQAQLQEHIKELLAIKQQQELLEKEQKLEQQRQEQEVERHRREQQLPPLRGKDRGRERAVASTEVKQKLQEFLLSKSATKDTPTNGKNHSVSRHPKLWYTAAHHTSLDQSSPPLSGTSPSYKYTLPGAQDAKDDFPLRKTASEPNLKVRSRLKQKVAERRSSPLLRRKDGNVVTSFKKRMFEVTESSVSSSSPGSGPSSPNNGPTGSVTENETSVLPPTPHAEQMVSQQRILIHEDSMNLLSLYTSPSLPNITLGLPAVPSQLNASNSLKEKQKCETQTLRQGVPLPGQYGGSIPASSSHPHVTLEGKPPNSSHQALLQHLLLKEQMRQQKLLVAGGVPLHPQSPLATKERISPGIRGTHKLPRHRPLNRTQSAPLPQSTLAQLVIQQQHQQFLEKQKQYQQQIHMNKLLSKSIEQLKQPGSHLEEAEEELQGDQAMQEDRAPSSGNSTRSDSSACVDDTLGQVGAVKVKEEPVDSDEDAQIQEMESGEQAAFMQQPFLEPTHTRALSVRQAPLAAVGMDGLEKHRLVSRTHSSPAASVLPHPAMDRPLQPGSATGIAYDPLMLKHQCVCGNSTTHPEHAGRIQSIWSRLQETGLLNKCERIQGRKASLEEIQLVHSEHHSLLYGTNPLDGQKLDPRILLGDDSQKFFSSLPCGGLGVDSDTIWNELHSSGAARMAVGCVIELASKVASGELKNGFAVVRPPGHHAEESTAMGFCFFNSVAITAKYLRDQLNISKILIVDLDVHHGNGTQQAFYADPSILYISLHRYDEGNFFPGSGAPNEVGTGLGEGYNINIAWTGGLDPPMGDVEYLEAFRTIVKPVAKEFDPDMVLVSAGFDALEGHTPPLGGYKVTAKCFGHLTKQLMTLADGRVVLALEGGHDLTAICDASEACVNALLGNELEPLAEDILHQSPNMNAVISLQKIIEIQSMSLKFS

[12] = biological target: Histone deacetylase 5 (Homo sapiens, UniProt Q9UQL6)
Histone deacetylase 5, sequence (Q9UQL6 whole entry): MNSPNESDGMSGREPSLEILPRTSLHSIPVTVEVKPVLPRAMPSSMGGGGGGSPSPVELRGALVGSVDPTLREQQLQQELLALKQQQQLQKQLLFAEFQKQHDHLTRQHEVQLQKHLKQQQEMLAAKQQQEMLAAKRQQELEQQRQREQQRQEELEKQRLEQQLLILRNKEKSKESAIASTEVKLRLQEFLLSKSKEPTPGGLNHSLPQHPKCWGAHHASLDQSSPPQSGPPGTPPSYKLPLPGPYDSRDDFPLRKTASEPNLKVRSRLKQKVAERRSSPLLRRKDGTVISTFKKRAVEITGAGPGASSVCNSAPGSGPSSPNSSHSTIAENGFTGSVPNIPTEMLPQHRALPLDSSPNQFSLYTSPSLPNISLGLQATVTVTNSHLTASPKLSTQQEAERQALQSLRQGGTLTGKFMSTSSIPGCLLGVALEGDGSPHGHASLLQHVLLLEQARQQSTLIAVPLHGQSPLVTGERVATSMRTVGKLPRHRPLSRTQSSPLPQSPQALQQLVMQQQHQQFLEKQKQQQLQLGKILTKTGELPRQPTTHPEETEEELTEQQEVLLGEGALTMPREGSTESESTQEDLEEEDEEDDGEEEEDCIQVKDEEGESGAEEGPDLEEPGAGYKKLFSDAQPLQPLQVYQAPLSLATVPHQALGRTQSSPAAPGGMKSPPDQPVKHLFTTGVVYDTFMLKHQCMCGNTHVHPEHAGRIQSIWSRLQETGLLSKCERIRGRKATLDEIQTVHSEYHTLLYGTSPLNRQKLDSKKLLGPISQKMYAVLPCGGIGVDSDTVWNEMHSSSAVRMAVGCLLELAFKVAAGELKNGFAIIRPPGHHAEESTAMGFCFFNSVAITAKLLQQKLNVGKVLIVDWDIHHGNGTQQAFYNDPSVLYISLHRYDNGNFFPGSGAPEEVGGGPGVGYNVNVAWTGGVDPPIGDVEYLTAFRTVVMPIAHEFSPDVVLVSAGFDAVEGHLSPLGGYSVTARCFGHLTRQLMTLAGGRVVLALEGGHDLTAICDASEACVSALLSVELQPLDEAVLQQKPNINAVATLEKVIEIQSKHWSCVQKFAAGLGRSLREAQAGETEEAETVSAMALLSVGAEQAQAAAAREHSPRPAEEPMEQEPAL

[13] = biological target: Histone deacetylase 7 (Homo sapiens, UniProt Q8WUI4)
Histone deacetylase 7, sequence (Q8WUI4 whole entry): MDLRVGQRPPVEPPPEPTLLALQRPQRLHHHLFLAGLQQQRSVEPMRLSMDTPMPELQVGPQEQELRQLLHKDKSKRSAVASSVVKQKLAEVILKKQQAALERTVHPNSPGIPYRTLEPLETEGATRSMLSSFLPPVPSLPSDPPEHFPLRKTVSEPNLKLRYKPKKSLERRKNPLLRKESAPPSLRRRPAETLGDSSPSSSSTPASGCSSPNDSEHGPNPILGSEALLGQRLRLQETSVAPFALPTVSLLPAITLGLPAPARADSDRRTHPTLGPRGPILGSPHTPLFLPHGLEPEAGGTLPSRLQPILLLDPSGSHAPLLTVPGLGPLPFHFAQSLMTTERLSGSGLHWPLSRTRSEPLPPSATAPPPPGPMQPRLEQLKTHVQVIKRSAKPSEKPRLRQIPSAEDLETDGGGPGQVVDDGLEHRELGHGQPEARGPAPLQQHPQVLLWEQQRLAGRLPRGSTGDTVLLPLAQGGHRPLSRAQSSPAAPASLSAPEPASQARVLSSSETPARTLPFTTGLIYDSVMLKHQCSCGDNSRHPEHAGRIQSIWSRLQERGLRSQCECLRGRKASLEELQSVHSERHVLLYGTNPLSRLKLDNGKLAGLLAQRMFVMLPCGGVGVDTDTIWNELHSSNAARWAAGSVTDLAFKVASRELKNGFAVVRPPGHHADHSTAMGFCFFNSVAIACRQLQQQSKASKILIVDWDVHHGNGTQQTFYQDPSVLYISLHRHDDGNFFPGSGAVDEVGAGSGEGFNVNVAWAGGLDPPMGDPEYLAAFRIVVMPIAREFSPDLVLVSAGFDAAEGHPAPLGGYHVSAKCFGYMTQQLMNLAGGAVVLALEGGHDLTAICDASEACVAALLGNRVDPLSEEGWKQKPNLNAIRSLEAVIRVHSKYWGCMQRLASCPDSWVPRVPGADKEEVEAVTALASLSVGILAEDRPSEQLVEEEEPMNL

[14] = tested on: HCT-116; assay: Antitumor activity against human HCT116 cells xenografted in ip dosed nude mouse assessed as tumor volume inhibition; assay type: functional
[15] = tested on: MKN-45; assay: Antiproliferative activity against human MKN45 cells; assay type: functional, cell-based
[16] = biological target: Cytochrome P450 3A4 (Homo sapiens, UniProt P08684); assay: Inhibition of CYP3A4; assay type: ADME
[17] = biological target: Histone deacetylase 1 (Mus musculus, UniProt O09106)
Description: Inhibition of mouse liver HDAC1

[18] = tested on: COLO 205; assay: Inhibition of human CoLo205 cells; assay type: functional
[19] = biological target: T4, Histone deacetylase 4
[20] = tested on: A549; assay: Antitumor activity against human A549 cells xenografted in nude mouse model at 70 mg/kg, po; assay type: functional; conditions: read-out: TGI
[21] = tested on: SW48; assay: Antitumor activity against human SW48 cells xenografted in nude mouse model at 60 mg/kg, po; assay type: functional; conditions: read-out: TGI
[22] = tested on: HCT-116; assay: Antitumor activity against human HCT116 cells xenografted in nude mouse model at 20 mg/kg, ip; assay type: functional; conditions: HCT-116, ip, route intraperitoneal, read-out: TGI
[23] = tested on: SW48; assay: Antitumor activity against human SW48 cells xenografted in nude mouse model at 25 mg/kg, ip; assay type: functional; conditions: route intraperitoneal, read-out: TGI

Compound O=C(/C=C/c1cccc(NS(=O)(=O)Cc2ccccc2)c1)NO has an inhibition [1] of 23%.

Work on Nc1ccccc1NC(=O)CCCCCCNC(=O)c1ccc(-c2ccccc2)nc1 yielded an IC50 [2] of 5 µM, an IC50 [3] of 3 µM and an EC50 [4] of 5 µM.

Compound CC(C)C(=O)SCCCCCCC(=O)Nc1ccccc1 has an EC50 [5] of 20 µM.

Work on O=C(/C=C/c1ccc(CN(CCO)CCc2cc3ccccc3[nH]2)cc1)NO yielded an IC50 [6] of 0.0037 µM, an IC50 [7] of 0.0018 µM and an IC50 [8] of 0.14 µM. The IC50 [9] was 0.015 µM.

CC(C)[C@H]1NC(=O)[C@@H](C)[C@@H](C/C=C\CCC(=O)O)NC(=O)[C@@H](Cc2ccccc2)NC(=O)[C@@H](C)NC1=O [AZUMAMIDE E] was tested, and the IC50 [6] was 0.08 µM, the inhibition [10] was 30% and the IC50 [8] was 3.7 µM. It also gave an IC50 [9] of 12 µM, an IC50 [11] of 28 µM and an IC50 [12] of 10 µM. For the same compound, the IC50 [13] was 9.7 µM.

Work on COc1cc(NCc2ccc(/C=C/C(=O)Nc3cc(-c4cccs4)ccc3N)cc2)cc(OC)c1OC yielded an Inhibition [14] of 78%.

Work on O=C(NO)c1ccc(-c2ccn(CCNCc3ccc4c(c3)OCO4)n2)s1 yielded an IC50 [15] of 0.63 µM and an IC50 [16] of 0.51 µM.

CC(C)(c1ccccc1)c1cc(=O)[nH]c(SCCCCCC(=O)NO)n1 was tested, and the IC50 [17] was 0.121 µM.

CC(C)(C)NCc1c(-c2ccccc2)nc2cc(/C=C/C(=O)NO)ccn12 was tested, and the GI50 [18] was 0.26 µM.

Compound CC(=O)Nc1ccc(C(=O)Nc2cc(-c3cccs3)ccc2N)cc1 has an IC50 [8] of over 20 µM, an IC50 [19] of over 20 µM and an IC50 [12] of over 20 µM. It also gave an IC50 [13] of over 20 µM.

COc1cc(NCc2ccc(/C=C/C(=O)Nc3ccccc3N)cc2)cc(OC)c1OC showed an IC50 [2] of 2 µM, an inhibition in vivo at 70 mg/kg [20] of 40% and an inhibition in vivo at 60 mg/kg [21] of 16%. For the same compound, the inhibition in vivo at 20 mg/kg [22] was 80% and the inhibition in vivo at 25 mg/kg [23] was 73%.
